# From patent publication US8013006B2
# Tested on: HCV replicon
# Assay: microbe, parasite or virus in culture
# Format: cell-based
# Conditions: Hepatitis C virus, 48 h, read-out: Replicon IC5Os
row,SMILES,IC50 [µM]
1,CCOC(=O)Nc1cccc(-c2c(C#N)c3ccc(OCCCn4ccnc4)cc3n2CC)c1 [Compound 525],0.5 to 2
2,CCOC(=O)Nc1cccc(-c2c(C#N)c3ccc(OCCCN4CCN(C)CC4)cc3n2CC)c1 [Compound 526],< 0.5
3,CCOC(=O)Nc1cccc(-c2c(C#N)c3ccc(OCCCN(C)CCOC)cc3n2CC)c1 [Compound 531],0.5 to 2
4,CCOC(=O)Nc1ccc(-c2c(C#N)c3ccc(OCCCn4ccnc4)cc3n2CC)cc1 [Compound 532],0.5 to 2
5,CCOC(=O)Nc1ccc(-c2c(C#N)c3ccc(OCCCN4CCN(C)CC4)cc3n2CC)cc1 [Compound 533],0.5 to 2
6,CCOC(=O)Nc1ccc(-c2c(C#N)c3ccc(OCCCN4CCSCC4)cc3n2CC)cc1 [Compound 534],< 0.5
7,CCOC(=O)Nc1ccc(-c2c(C#N)c3ccc(OCCCN4CCCCC4)cc3n2CC)cc1 [Compound 535],< 0.5
8,CCOC(=O)Nc1ccc(-c2c(C#N)c3ccc(OCCCn4ccnn4)cc3n2CC)cc1 [Compound 536],0.5 to 2
9,CCOC(=O)Nc1ccc(-c2c(C#N)c3ccc(OCCCN4CCCC4)cc3n2CC)cc1 [Compound 537],< 0.5
10,CCOC(=O)Nc1ccc(-c2c(C#N)c3ccc(OCCCn4cncn4)cc3n2CC)cc1 [Compound 538],0.5 to 2
11,CCOC(=O)Nc1ccc(-c2c(C#N)c3ccc(OCCCN4CCOCC4)cc3n2CC)cc1 [Compound 539],< 0.5
12,C=CS(=O)(=O)Nc1cccc(-c2c(C#N)c3ccc(C(F)(F)F)cc3n2CC)c1 [Compound 562],< 0.5
13,CCn1c(-c2cccc(NC(=O)OC)c2)c(C#N)c2ccc(OC(C)C)cc21 [Compound 581],0.5 to 2
14,CCOC(=O)Nc1cccc(-c2c(C#N)c3ccc(OC(C)C)cc3n2CC)c1 [Compound 582],0.5 to 2
15,CCCOC(=O)Nc1cccc(-c2c(C#N)c3ccc(OC(C)C)cc3n2CC)c1 [Compound 585],0.5 to 2

# Same assay, conditions: Replicon IC50 values are determined by firefly luciferase signal; bicistronic replicon, 2 days; read-out: Replicon IC5Os
row,SMILES,IC50 [µM]
1,CCS(=O)(=O)Nc1ccc(-c2cc3ccc(OC(F)F)cc3n2C)cc1 [Compound 515],0.5 to 2
2,CCS(=O)(=O)Nc1ccc(-c2cc3ccc(OC(F)F)cc3n2C(C)C)cc1 [Compound 517],> 2
3,CCCn1c(-c2ccc(NS(=O)(=O)CC)cc2)c(C#N)c2ccc(OC(F)F)cc21 [Compound 522],< 0.5
4,CCS(=O)(=O)Nc1ccc(-c2c(C#N)c3ccc(OC(F)F)cc3n2C(C)C)cc1 [Compound 524],< 0.5
5,CCOC(=O)Nc1cccc(-c2c(C#N)c3ccc(OCCCN4CCSCC4)cc3n2CC)c1 [Compound 527],0.5 to 2
6,CCOC(=O)Nc1cccc(-c2c(C#N)c3ccc(OCCCN4CCCCC4)cc3n2CC)c1 [Compound 528],0.5 to 2
7,CCOC(=O)Nc1cccc(-c2c(C#N)c3ccc(OCCCn4ccnn4)cc3n2CC)c1 [Compound 529],0.5 to 2
8,CCn1c(-c2cccc(NS(=O)(=O)NC)c2)c(C#N)c2ccc(OC)cc21 [Compound 540],0.5 to 2
9,CCNS(=O)(=O)Nc1cccc(-c2c(C#N)c3ccc(OC)cc3n2CC)c1 [Compound 541],> 2
10,CCCOC(=O)Nc1ccc(-c2c(C#N)c3ccc(OCCF)cc3n2CC)cc1 [Compound 547],< 0.5
11,COc1ccc2c(C#N)c(-c3cccc(NC(=O)OCCCl)c3)n(C(C)C)c2c1 [Compound 553],> 2
12,C#CCOC(=O)Nc1cccc(-c2c(C#N)c3ccc(OC)cc3n2C(C)C)c1 [Compound 554],> 2
13,COCCOC(=O)Nc1cccc(-c2c(C#N)c3ccc(OC)cc3n2C(C)C)c1 [Compound 555],> 2
14,COc1ccc2c(C#N)c(-c3cccc(NC(=O)OCc4ccccc4)c3)n(C(C)C)c2c1 [Compound 556],> 2
15,COc1ccc(OC(=O)Nc2cccc(-c3c(C#N)c4ccc(OC)cc4n3C(C)C)c2)cc1 [Compound 557],0.5 to 2
16,CCn1c(-c2cccc(NC(=O)CCl)c2)c(C#N)c2ccc(C(F)(F)F)cc21 [Compound 558],0.5 to 2
17,CCC(=O)Nc1cccc(-c2c(C#N)c3ccc(C(F)(F)F)cc3n2CC)c1 [Compound 559],> 2
18,CCn1c(-c2cccc(NC(=O)c3ccccc3)c2)c(C#N)c2ccc(C(F)(F)F)cc21 [Compound 560],> 2
19,CCn1c(-c2cccc(NC(=O)C3CC3)c2)c(C#N)c2ccc(C(F)(F)F)cc21 [Compound 561],> 2
20,CCn1c(-c2ccc(C(=O)NCCNC)cc2)c(C#N)c2ccc(OC)cc21 [Compound 564],0.5 to 2
21,CCn1c(-c2ccc(NC(C)=O)cc2)c(C#N)c2ccccc21 [Compound 565],> 2
22,CCn1c(-c2ccc(NC(=O)COC)cc2)c(C#N)c2ccccc21 [Compound 566],> 2
23,CCn1c(-c2ccc(C(N)=O)cc2)c(C#N)c2cc(OC)ccc21 [Compound 568],> 2

row,SMILES,IC50 [µM]
1,CCNC(=O)c1ccc(-c2c(C#N)c3cc(OC)ccc3n2CC)cc1 [Compound 569],0.5 to 2
2,CCn1c(-c2ccc(C(=O)NC3CC3)cc2)c(C#N)c2cc(OC)ccc21 [Compound 571],0.5 to 2
3,CCn1c(-c2ccc(C(=O)NCCOC)cc2)c(C#N)c2cc(OC)ccc21 [Compound 572],0.5 to 2
4,CCn1c(-c2ccc(C(=O)N3CCCN(C)CC3)cc2)c(C#N)c2cc(OC)ccc21 [Compound 573],> 2
5,CCN(CC)S(=O)(=O)Nc1cccc(-c2c(C#N)c3ccc(OC)cc3n2CC)c1 [Compound 574],> 2
6,CCS(=O)(=O)Nc1ccc(-c2cc3cc(OC)ccc3n2C)cc1 [Compound 575],0.5 to 2
7,CCn1c(-c2cccc(NS(=O)(=O)N3CCCC3)c2)c(C#N)c2ccc(OC)cc21 [Compound 576],> 2
8,CCS(=O)(=O)Nc1ccc(-c2cc3c(OC)cccc3n2C)cc1 [Compound 577],0.5 to 2
9,CCn1c(-c2ccc3occc3c2)c(C#N)c2ccc(OC)cc21 [Compound 578],0.5 to 2
10,CCn1c(-c2cccc(NC(=O)OCCF)c2)c(C#N)c2ccc(OC(C)C)cc21 [Compound 583],0.5 to 2
11,CCn1c(-c2cccc(NC(=O)OCCCl)c2)c(C#N)c2ccc(OC(C)C)cc21 [Compound 584],> 2
12,CCn1c(-c2cccc(NC(=O)OCCCCl)c2)c(C#N)c2ccc(OC(C)C)cc21 [Compound 586],0.5 to 2
13,CCn1c(-c2cccc(NC(=O)OC(C)C)c2)c(C#N)c2ccc(OC(C)C)cc21 [Compound 587],0.5 to 2
14,C#CCOC(=O)Nc1cccc(-c2c(C#N)c3ccc(OC(C)C)cc3n2CC)c1 [Compound 588],> 2
15,CCn1c(-c2cccc(NC(=O)OCCOC)c2)c(C#N)c2ccc(OC(C)C)cc21 [Compound 589],0.5 to 2
16,CCn1c(-c2cccc(NC(=O)OCC(C)C)c2)c(C#N)c2ccc(OC(C)C)cc21 [Compound 591],> 2
17,CC#CCOC(=O)Nc1cccc(-c2c(C#N)c3ccc(OC(C)C)cc3n2CC)c1 [Compound 592],> 2
18,CCn1c(-c2cccc(NC(=O)OCc3ccccc3)c2)c(C#N)c2ccc(OC(C)C)cc21 [Compound 593],> 2
19,CCn1c(-c2cccc(NC(=O)OCCl)c2)c(C#N)c2ccc(OC(C)C)cc21 [Compound 594],> 2
20,CCCCOC(=O)Nc1cccc(-c2c(C#N)c3ccc(OC(C)C)cc3n2CC)c1 [Compound 595],> 2
21,C=CCOC(=O)Nc1cccc(-c2c(C#N)c3ccc(OC(C)C)cc3n2CC)c1 [Compound 596],0.5 to 2
22,C=CC(C)OC(=O)Nc1cccc(-c2c(C#N)c3ccc(OC(C)C)cc3n2CC)c1 (stereo not drawn) [Compound 597],> 2
